Reference: the NIST ThermoML archive (doi:10.1016/j.fluid.2016.09.021)

Details: Liquid, Vibrating tube method

Cc1ccccc1 [toluene]
mass density [kg/m3]
Details	293 K	313 K	333 K	353 K	373 K	393 K	413 K	433 K	448 K	468 K
2000 kPa	871.2	852.2	833	814.2	794.2	774.2	753.1	731.6	714.3	689.9
3000 kPa	871.9	853	834	815.2	795.4	775.7	754.9	733.6	716.6	692.7
4000 kPa	872.6	853.9	834.9	816.3	796.6	777.2	756.5	735.6	718.9	695.5
5000 kPa	873.2	854.6	835.8	817.3	797.8	778.5	758.3	737.5	721.1	698.2
10000 kPa	876.8	858.6	840.2	822.4	803.8	785.1	766.1	746.9	731.4	710.6
20000 kPa	883.4	866.1	848.2	831.5	814	797	779.5	762.1	748.5	730.4
30000 kPa	889.3	872.9	855.9	840.1	823.5	807.5	791.3	774.9	762.6	745.9
40000 kPa	895.1	879	863	847.6	832	816.9	801.6	786.5	774.7	759.3
50000 kPa	900.5	884.8	869.2	854.7	840.2	825.2	810.8	796.7	785.5	771.1
60000 kPa	905.8	890.4	875.6	861.5	847.2	833.3	819.2	805.8	795.1	781.7
70000 kPa	910.8	896	881.5	867.7	853.9	840.6	827.3	814.3	804.1	790.9
80000 kPa	915.8	901.2	887.1	873.8	860.3	847.3	834.6	822	812.3	799.8
90000 kPa	920.4	906.3	892.3	879.6	866.6	854	841.3	829.2	820	808
100000 kPa	924.8	911	897.6	884.9	872.2	860.1	848	836	827.2	815.5
110000 kPa	929.4	915.7	902.5	890.3	877.8	866	854.2	842.6	833.9	822.8
120000 kPa	933.6	920.3	907.3	895.4	883.3	871.6	860.2	848.7	840.2	829.5
130000 kPa	938	924.8	912	900.3	888.5	877.2	865.8	854.9	846.6	836
135000 kPa	939.9	927	914.2	902.6	890.8	879.8	868.5	857.7	849.6	838.9
137500 kPa	940.9	927.9	915.4	903.7	892	881	869.7	859	850.9	840.4
